This assay addresses human F508del-CFTR (Homo sapiens, UniProt P13569, DEL508-508). Put plainly: F508del-CFTR cell surface expression (corrector activity), DiscoveRx ß-galactosidase complementation chemiluminescence assay in recombinant U2OS cell line.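 For all read-outs here: U2OS cells co-expressing ProLink-tagged F508del-CFTR and a membrane-anchored enzyme acceptor, where more surface CFTR restores β-galactosidase activity measured by chemiluminescence.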 The settings on record: for pEC50: EC50, F508del-CFTR cell surface expression, U2OS cells, 16h compound incubation, geomean values; for Emax: U2OS, in relation to Emax of corrector lumacaftor (=100%), arithmetic mean values.

pEC50: −log10 of the molar value.

Chain of human F508del-CFTR (P13569 with tags, fused parts or gaps DEL508-508): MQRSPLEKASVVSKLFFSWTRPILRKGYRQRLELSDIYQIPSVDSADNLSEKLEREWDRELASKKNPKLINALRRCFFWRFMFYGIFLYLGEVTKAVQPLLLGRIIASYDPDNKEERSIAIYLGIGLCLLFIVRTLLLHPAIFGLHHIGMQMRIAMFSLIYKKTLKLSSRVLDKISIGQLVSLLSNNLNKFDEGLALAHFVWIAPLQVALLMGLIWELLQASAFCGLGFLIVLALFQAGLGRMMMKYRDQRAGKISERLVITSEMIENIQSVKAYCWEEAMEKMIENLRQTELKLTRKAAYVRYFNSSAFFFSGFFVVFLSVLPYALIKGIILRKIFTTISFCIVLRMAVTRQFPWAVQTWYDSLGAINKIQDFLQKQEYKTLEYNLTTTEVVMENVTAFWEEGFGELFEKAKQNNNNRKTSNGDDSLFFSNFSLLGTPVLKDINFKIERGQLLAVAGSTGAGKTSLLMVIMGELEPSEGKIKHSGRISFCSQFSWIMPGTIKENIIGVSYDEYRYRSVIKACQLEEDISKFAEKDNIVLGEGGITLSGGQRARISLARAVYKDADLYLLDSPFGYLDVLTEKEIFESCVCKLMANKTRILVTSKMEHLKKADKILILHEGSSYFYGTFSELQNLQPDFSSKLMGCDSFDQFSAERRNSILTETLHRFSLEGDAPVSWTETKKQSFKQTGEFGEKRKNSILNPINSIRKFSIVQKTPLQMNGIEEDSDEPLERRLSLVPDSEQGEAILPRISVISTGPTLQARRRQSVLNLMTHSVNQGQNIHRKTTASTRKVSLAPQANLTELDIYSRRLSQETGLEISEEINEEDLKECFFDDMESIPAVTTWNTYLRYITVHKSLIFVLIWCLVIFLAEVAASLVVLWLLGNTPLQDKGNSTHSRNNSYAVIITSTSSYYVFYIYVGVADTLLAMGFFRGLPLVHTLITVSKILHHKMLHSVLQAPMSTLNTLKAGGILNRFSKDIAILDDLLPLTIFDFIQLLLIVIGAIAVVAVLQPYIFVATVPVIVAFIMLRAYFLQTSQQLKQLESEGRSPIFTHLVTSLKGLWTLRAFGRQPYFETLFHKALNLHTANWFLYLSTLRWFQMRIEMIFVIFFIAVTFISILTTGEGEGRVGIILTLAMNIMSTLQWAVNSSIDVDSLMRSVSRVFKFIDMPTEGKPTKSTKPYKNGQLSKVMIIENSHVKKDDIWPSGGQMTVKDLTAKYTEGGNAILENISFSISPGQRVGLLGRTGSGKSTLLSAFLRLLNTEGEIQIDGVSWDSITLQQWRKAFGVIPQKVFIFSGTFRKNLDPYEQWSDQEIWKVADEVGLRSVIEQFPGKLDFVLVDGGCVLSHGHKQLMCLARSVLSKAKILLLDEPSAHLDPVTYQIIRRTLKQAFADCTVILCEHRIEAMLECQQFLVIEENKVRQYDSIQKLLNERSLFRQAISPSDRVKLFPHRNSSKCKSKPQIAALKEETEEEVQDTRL

`[2H]C([2H])([2H])Oc1nc(C)cc2c1C(=O)N[C@H](C(=O)NCCc1cc(C3CC3)no1)CC(=O)N(C)[C@@H](CC(C)C)C(=O)N1CCCC[C@@H]1C(=O)N[C@H](Cc1ccccc1)CO2` [Example 659, (7S,11S,17aR,20R)-20-benzyl-N-(2-(3-cyclopropylisoxazol-5-yl)ethyl)-11-isobutyl-4-(methoxy-d3)-2,10-dimethyl-5,9,12,18-tetraoxo-5,6,7,8,9,10,11,12,15,16,17,17a,18,19,20,21-hexadecahydro-14H-dipyrido[2,1-f:3′,4′-p][1]oxa[4,7,10,14]tetraazacycloheptadecine-7-carboxamide]: the pEC50 was 6.44 and the Emax was determined as 325%.
The like results for `CC(C)C[C@H]1C(=O)N2CCCC[C@@H]2C(=O)N[C@H](Cc2ccccc2)COc2cnc3cccc(F)c3c2C(=O)N[C@H](C(=O)NCCc2cc(C3CC3)no2)CC(=O)N1C` [Example 660, (9S,13S,19aR,22R)-22-benzyl-N-(2-(3-cyclopropylisoxazol-5-yl)ethyl)-6-fluoro-13-isobutyl-12-methyl-7,11,14,20-tetraoxo-7,8,9,10,11,12,13,14,17,18,19,19a,20,21,22,23-hexadecahydro-16H-pyrido[2′,1′:6,7][1]oxa[4,7,10,14]tetraazacycloheptadecino[17,16-c]quinoline-9-carboxamide] were, in that order, 7.04 and 358%.
The like results for `COc1nccc2c1C(=O)N[C@H](C(=O)NCCc1cc(C3CC3)no1)CC(=O)N(C)[C@@H](CC(C)C)C(=O)N1CCC(F)(F)C[C@@H]1C(=O)N[C@H](Cc1ccccc1)CO2` [Example 663, (7S,11S,17aR,20R)-20-benzyl-N-(2-(3-cyclopropylisoxazol-5-yl)ethyl)-16,16-difluoro-11-isobutyl-4-methoxy-10-methyl-5,9,12,18-tetraoxo-5,6,7,8,9,10,11,12,15,16,17,17a,18,19,20,21-hexadecahydro-14H-dipyrido[2,1-f:3′,4′-p][1]oxa[4,7,10,14]tetraazacycloheptadecine-7-carboxamide] were, in that order, 6.10 and 210%.
As for `[2H]C([2H])([2H])Oc1nc(C)cc2c1C(=O)N[C@H](C(=O)NCCc1cc(C3CC3)on1)CC(=O)N(C)[C@@H](CC(C)C)C(=O)N1CCCC[C@@H]1C(=O)N[C@H](Cc1ccccc1)CO2` [Example 664, (7S,11S,17aR,20R)-20-benzyl-N-(2-(5-cyclopropylisoxazol-3-yl)ethyl)-11-isobutyl-4-(methoxy-d3)-2,10-dimethyl-5,9,12,18-tetraoxo-5,6,7,8,9,10,11,12,15,16,17,17a,18,19,20,21-hexadecahydro-14H-dipyrido[2,1-f:3′,4′-p][1]oxa[4,7,10,14]tetraazacycloheptadecine-7-carboxamide], the pEC50 is 6.64 and the Emax is 291%.
Regarding `CC(C)C[C@H]1C(=O)N2CCCC[C@@H]2C(=O)N[C@H](Cc2ccccc2)COc2cnc3ccc(F)cc3c2C(=O)N[C@H](C(=O)NCCc2cnn(C3CC3)n2)CC(=O)N1C` [Example 665, (9S,13S,19aR,22R)-22-benzyl-N-(2-(2-cyclopropyl-2H-1,2,3-triazol-4-yl)ethyl)-5-fluoro-13-isobutyl-12-methyl-7,11,14,20-tetraoxo-7,8,9,10,11,12,13,14,17,18,19,19a,20,21,22,23-hexadecahydro-16H-pyrido[2′,1′:6,7][1]oxa[4,7,10,14]tetraazacycloheptadecino[17,16-c]quinoline-9-carboxamide], the pEC50 is 6.92 and the Emax turned out to be 323%.
Regarding `[2H]C([2H])([2H])Oc1nc(C)cc2c1C(=O)N[C@H](C(=O)NCCc1noc(C3CC3)n1)CC(=O)N(C)[C@@H](CC(C)C)C(=O)N1CCCC[C@@H]1C(=O)N[C@H](Cc1ccccc1)CO2` [Example 666, (7S,11S,17aR,20R)-20-benzyl-N-(2-(5-cyclopropyl-1,2,4-oxadiazol-3-yl)ethyl)-11-isobutyl-4-(methoxy-d3)-2,10-dimethyl-5,9,12,18-tetraoxo-5,6,7,8,9,10,11,12,15,16,17,17a,18,19,20,21-hexadecahydro-14H-dipyrido[2,1-f:3′,4′-p][1]oxa[4,7,10,14]tetraazacycloheptadecine-7-carboxamide], the pEC50 was 6.32 and the maximum response (Emax) came to 311%.
On to `COc1nc(C)cc2c1C(=O)N[C@H](C(=O)NCCc1cc(C(F)(F)F)no1)CC(=O)N(C)[C@@H](CC(C)C)C(=O)N1CCCC[C@H]1C(=O)N[C@H](Cc1ccccc1)CO2` [Example 667, (7S,11S,17aS,20R)-20-benzyl-11-isobutyl-4-methoxy-2,10-dimethyl-5,9,12,18-tetraoxo-N-(2-(3-(trifluoromethyl)isoxazol-5-yl)ethyl)-5,6,7,8,9,10,11,12,15,16,17,17a,18,19,20,21-hexadecahydro-14H-dipyrido[2,1-f:3′,4′-p][1]oxa[4,7,10,14]tetraazacycloheptadecine-7-carboxamide], for which the negative-log EC50 (pEC50) was 6.12 and the Emax was 149%.
In the same order, the values of `COc1nccc2c1C(=O)N[C@H](C(=O)NCCc1cc(C3CC3)no1)CC(=O)N(C)[C@@H](CC(C)C)C(=O)N1CCC3(CC3)C[C@@H]1C(=O)N[C@H](Cc1ccccc1)CO2` [Example 668, (7′S,11′S,17a′R,20′R)-20′-benzyl-N-(2-(3-cyclopropylisoxazol-5-yl)ethyl)-11′-isobutyl-4′-methoxy-10′-methyl-5′,9′,12′,18′-tetraoxo-5′,6′,7′,8′,9′,10′,11′,12′,14′,15′,17′,17a′,18′,19′,20′,21′-hexadecahydrospiro[cyclopropane-1,16′-dipyrido[2,1-f:3′,4′-p][1]oxa[4,7,10,14]tetraazacycloheptadecine]-7′-carboxamide] are 6.80 and 330%.
In the same order, the values of `COc1nccc2c1C(=O)N[C@H](C(=O)NCCc1cc(C3CC3)no1)CC(=O)N(C)[C@@H](CC(C)C)C(=O)N1CC[C@H](c3ccccc3)C[C@H]1C(=O)N[C@H](Cc1ccccc1)CO2` [Example 670, (7S,11S,17aS,20R)-20-benzyl-N-(2-(3-cyclopropylisoxazol-5-yl)ethyl)-11-isobutyl-4-methoxy-10-methyl-5,9,12,18-tetraoxo-16-phenyl-5,6,7,8,9,10,11,12,15,16,17,17a,18,19,20,21-hexadecahydro-14H-dipyrido[2,1-f:3′,4′-p][1]oxa[4,7,10,14]tetraazacycloheptadecine-7-carboxamide] are 6.45 and 167%.
In the same order, the values of `COc1nccc2c1C(=O)N[C@H](C(=O)NCCc1cc(C3CC3)no1)CC(=O)N(C)[C@@H](CC(C)C)C(=O)N1CC[C@@H](c3ccccc3)C[C@@H]1C(=O)N[C@H](Cc1ccccc1)CO2` [Example 672, (7S,11S,17aR,20R)-20-benzyl-N-(2-(3-cyclopropylisoxazol-5-yl)ethyl)-11-isobutyl-4-methoxy-10-methyl-5,9,12,18-tetraoxo-16-phenyl-5,6,7,8,9,10,11,12,15,16,17,17a,18,19,20,21-hexadecahydro-14H-dipyrido[2,1-f:3′,4′-p][1]oxa[4,7,10,14]tetraazacycloheptadecine-7-carboxamide] are 6.99 and 312%.

The values above are taken from patent publication US20240208992A1, “MACROCYCLES AS CFTR MODULATORS” (Idorsia Pharmaceuticals Ltd, priority 2021, published 2024).
